Here are results for one compound from patent publication US20220073981A1 (KOREA INSTITUTE OF SCIENCE AND TECHNOLOGY, priority 2020, published 2022).

In the data set the test system is BEAS-2B cell line. Description: Cytotoxicity test (MTT assay). The class given is cell-based, human. The note with it: 48 hours exposure. How it is done:
An MTT assay was performed using the BEAS-2B cell line according to the method of Mossman et al. (J. Immunol. Methods, 65, 55-63, 1983).
Background: Tetrazolium dyes change colour on reduction, which living cells bring about.

Take `CCC(C)=O` [2-butanone]: the “concentration (IC5) showing the 95% survival rate” value is 22270 µM and the “concentration showing the 80% survival rate” value is 106210 µM.
